Laboratory results as given in ChEMBL document CHEMBL1150846, “Thorectandrols A and B, new cytotoxic sesterterpenes from the marine sponge Thorectandra species” (J Nat Prod, 2001).
Values after ≈ are worked out from the molar mass of the structure shown.

What was measured:
Malme-3M = experiment: Cytotoxicity against human MALME-3M cells after 2 days by XTT assay; format: functional, cell-based; conditions: 48 h
MCF7 = experiment: Cytotoxicity against human MCF7 cells after 2 days by XTT assay; format: functional, cell-based; conditions: MCF7, 48 h

C=C1CCC[C@@H]2[C@@](C)(CC/C(C)=C/C[C@@H](O)C3=CC(=O)OC3O)[C@@H](C)CC[C@@]12C (some centres not stated) [PALAUOLOL]
IC50 (Malme-3M): 0.46 µg/mL (≈ 1.14 µM) | IC50 (MCF7): 14.2 µg/mL (≈ 35.3 µM)
